Laboratory results: patent US20150231117A1 (Array BioPharma Inc., priority 2012, published 2015)

How the values were obtained:
% Fu to human plasma = type: in vitro ADME; details: human plasma (ready-to-use bead-based binding assay kit)
Description: Thawed the assay kit either at room temperature (approximately 3 hours) or in the refrigerator at 4° C. overnight. The plates were put in the incubator, CO2 (5%) for 30 minutes prior to addition of compound. A pre-dilution of the compounds (10-fold assay concentration) were prepared, see Drug Dilution step above. The drug dilutions were warmed in a 37° C. water bath prior to dosing compound into plate. Caution: Check carefully the pre-dilution for any precipitation and ensure a sufficient buffer solubility and stability of your test article. Test article solution (45 μL) was added to the tubes/well of the ready-to-use kit and incubated for 2 minutes. Mixed ten times by re-suspending the beads. Re-suspended approximately half of the total volume of the vial (total volume is 450 μL). […] The vials were spun with a swing-out centrifuge for 10 minutes at 750 g. 100 μL was carefully transferred to 96-well plate. Acetonitrile (50 μL) was added with labetalol as the internal standard (0.4 μM final concentration). The plates were sealed for analysis. The concentration of the supernatant was quantified with LC/MS (API4000). See also, Brown, Karin D. supra. The result is in Table 1. pKa value was estimated using ACD/pKa DB software. Calculations: [formula]

Dose limiting toxicity = details: in vivo
From the text: As such, prophylactic granulocyte colony-stimulating factory (“G-CSF”) may be administered.

AAG = target: T1, AAG; test: TRANSIL binding assay, AAG; parameters: species or system human
T1 construct: other: TRANSIL, PBS pH 7.4, 2 μM drug; other: not for other serum proteins such as albumin; fused on or other part: AGP immobilised on TRANSIL silica beads (ready-to-use kit)
Description: (§1) TRANSIL® Binding Methodology (www.admecell.com)—Assay Buffers: phosphate buffered saline (“PBS”), pH 7.4 (Gibco 10010) and dimethylsulfoxide (“DMSO”). Plates: Ordered from ADMEcell (Alameda, Calif.). AGP—Full Plate: TBP-0211-0096; AGP—Strip Plate: TBP-0211-1196; HSA—Full Plate: TBP-0210-0096; HSA—Strip Plate: TBP-0210-1196. Stop Solution: 100% Acetonitrile spiked with Internal Standard (0.4 μM final concentration).
(§2) Drug Dilution: Dilution of drug samples to make a final 2 μM drug concentration (1% DMSO) (used 360 μL of final diluted drug per protein testing, i.e., 720 μL to run both AAG and HSA). Brought drug up to a 10 mM stock solution in DMSO. Diluted 10 mM stock to a 200 μM (0.2 mM) stock solution (added 4 μL of 10 mM stock solution into 196 μL, of DMSO). Diluted 200 μM stock to a 20 μM stock solution (added 100 μL of 200 μM DMSO stock solution into 900 μL of PBS Buffer, pH 7.4).
(§3) Thawed the assay kit either at room temperature (approximately 3 hours) or in the refrigerator at 4° C. overnight. The plates were put in the incubator, CO2 (5%) for 30 minutes prior to addition of compound. A pre-dilution of the compounds (10-fold assay concentration) were prepared, see Drug Dilution step above. […] Test article solution (45 μL) was added to the tubes/well of the ready-to-use kit and incubated for 2 minutes. […] The concentration of the supernatant was quantified with LC/MS (API4000). […]

HSA = target: T2, HSA (Homo sapiens, UniProt P02768); test: TRANSIL binding assay, HSA; details: PBS pH 7.4, 2 μM drug
T2 construct: purchased ADMEcell (Alameda, Calif.) TBP-0210-0096 / TBP-0210-1196
T2 sequence (P02768 25-609): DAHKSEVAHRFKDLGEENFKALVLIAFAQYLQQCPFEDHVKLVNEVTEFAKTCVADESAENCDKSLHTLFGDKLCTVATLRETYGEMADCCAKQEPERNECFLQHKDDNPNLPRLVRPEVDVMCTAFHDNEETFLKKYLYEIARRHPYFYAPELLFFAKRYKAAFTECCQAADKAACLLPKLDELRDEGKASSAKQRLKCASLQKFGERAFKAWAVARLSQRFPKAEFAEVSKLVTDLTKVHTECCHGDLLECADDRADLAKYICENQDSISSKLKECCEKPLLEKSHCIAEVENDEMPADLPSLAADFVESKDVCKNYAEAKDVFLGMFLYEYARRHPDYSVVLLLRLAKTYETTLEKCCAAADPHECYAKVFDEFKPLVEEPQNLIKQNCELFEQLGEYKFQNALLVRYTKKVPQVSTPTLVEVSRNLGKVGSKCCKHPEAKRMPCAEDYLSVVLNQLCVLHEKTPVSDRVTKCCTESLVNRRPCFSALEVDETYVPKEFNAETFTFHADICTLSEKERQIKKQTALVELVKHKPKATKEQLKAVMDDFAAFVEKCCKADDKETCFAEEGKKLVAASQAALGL
Description: as §1, §2, §3

NCI H929 MM cells = test: 3 day Cell Titer Blue viability assay with added AAG, NCI H929; type: cell-based, human
From the text: (§4) Kit: Cell Titer-Blue Cell Viability Assay, Promega Corp. (Madison Wis.) Catalog No. G8081

RPMI-8226 MM cells = test: Cell Titer Blue viability assay with added AAG, RPMI 8226; type: cell-based, human
From the text: as §4

KSP = target: T3, KSP (Homo sapiens, UniProt P52732); test: Estimated in vitro unbound IC50
T3 sequence (P52732 1-1056): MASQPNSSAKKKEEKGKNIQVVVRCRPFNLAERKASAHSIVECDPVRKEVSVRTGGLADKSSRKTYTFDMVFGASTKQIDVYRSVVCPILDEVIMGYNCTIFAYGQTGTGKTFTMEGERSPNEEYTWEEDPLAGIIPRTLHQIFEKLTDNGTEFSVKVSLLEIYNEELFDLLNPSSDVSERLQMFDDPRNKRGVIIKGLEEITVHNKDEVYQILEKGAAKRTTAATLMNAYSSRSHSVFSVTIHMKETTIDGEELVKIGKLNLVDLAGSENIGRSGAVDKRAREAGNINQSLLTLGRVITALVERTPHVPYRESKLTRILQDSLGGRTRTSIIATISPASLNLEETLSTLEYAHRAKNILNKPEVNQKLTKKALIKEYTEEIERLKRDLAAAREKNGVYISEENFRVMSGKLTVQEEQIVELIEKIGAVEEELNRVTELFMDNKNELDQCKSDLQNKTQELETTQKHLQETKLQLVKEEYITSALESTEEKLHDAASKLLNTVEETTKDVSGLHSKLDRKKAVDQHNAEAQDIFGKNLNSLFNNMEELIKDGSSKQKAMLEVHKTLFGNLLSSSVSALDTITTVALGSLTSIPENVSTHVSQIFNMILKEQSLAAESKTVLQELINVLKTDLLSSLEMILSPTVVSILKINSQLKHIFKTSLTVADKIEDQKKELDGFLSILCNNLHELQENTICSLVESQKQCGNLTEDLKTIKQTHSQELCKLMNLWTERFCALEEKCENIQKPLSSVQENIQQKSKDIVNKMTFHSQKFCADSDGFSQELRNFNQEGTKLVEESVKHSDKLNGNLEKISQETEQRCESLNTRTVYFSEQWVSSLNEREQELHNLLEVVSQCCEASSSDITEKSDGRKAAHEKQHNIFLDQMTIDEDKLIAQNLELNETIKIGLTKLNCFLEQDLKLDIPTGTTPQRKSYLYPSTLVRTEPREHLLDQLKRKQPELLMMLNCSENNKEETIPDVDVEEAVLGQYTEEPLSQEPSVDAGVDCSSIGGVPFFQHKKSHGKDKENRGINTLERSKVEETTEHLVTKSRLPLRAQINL
Description: Model optimization was accomplished using the QRPEM engine of Phoenix 6.3 (Pharsight Corporation, St. Louis, Mo.). Model selection was based on AIC comparisons and diagnostic plots. Simulations were for a typical patient receiving Phase 2 dose of 1.5 mg/m^2 on day 1 and day 2 with varying [AAG].

[1] = tested on: Patients with Relapsed or Refractory Multiple Myeloma; test: Clinical study in patients with relapsed or refractory multiple myeloma, analysed by baseline [AAG]; type: in vivo, human
Description: The R&D Systems, Inc. (Minneapolis, Minn.) Quantikine® Human α1-Acid Glycoprotein Immunoassay (Catalog No. DAGPOO) is a 4.5 hour solid-phase ELISA designed to measure human AAG in cell culture supemates, serum, plasma, and urine. This assay employed the quantitative sandwich enzyme immunoassay technique. […] Standards and samples are pipetted into the wells, and any AAG present is bound by the immobilized antibody. After washing away any unbound substances, an enzyme-linked polyclonal antibody specific for AAG is added to the wells. Following a wash to remove any unbound antibody-enzyme reagent, a substrate solution is added to the wells, and color develops in proportion to the amount of AAG bound in the initial step. The color development is stopped, and the intensity of the color is measured. The assay was performed as described in the package insert, except where described otherwise below.

[2] = Phase 2 + dex (with dexamethasone), All Patients, n=18
[3] = Phase 2 + dex (with dexamethasone), [AAG] <1.1 g/L, n=12
[4] = Phase 2 Single Agent, All Patients, n=27
[5] = Phase 2 Single Agent, [AAG] <1.1 g/L, n=21

Compound: CON(C)C(=O)N1N=C(c2cc(F)ccc2F)S[C@@]1(CCCN)c1ccccc1.Cl [ARRY-520, (S)-2-(3-Aminopropyl)-5-(2,5-difluorophenyl)-N-methoxy-N-methyl-2-phenyl-1,3,4-thiadiazole-3(2H)-carboxamide]
- fraction unbound at 2 min (% Fu to human plasma): 0.07
- major dose limiting toxicity (DLT) (Dose limiting toxicity): neutropenia
- Kd (AAG; TRANSIL, PBS pH 7.4, 2 μM drug): 5 µM
- affinity for AAG in in vitro assays (AAG; not for other serum proteins such as albumin): low micromolar affinity
- Kd (HSA): 147 µM
- decrease of cellular sensitivity to ARRY-520 as [AAG] increases (NCI H929 MM cells; AAG 0.5-4 mg/mL final concentration, FIG. 1): greater than 30 fold
- effect of increasing AAG levels on cell sensitivity (NCI H929 MM cells; NCI H929): decrease cell sensitivity
- effect of increasing AAG levels on cell sensitivity (RPMI-8226 MM cells): decrease cell sensitivity
- IC50 (KSP): 0.000438 µM
- Median Time on Study (months) ([1]; Phase 1, All Patients, n=27): 3.9 months
- ≧MR, number of patients ([1]; Phase 1, All Patients, n=27): 4
- ≧MR, rate ([1]; Phase 1, All Patients, n=27): 15%
- ≧PR, number of patients ([1]; Phase 1, All Patients, n=27): 3
- ≧PR, rate ([1]; Phase 1, All Patients, n=27): 11%
- Median Time on Study (months) ([1]; Phase 1, [AAG] <1.1 g/L, n=20): 5.2 months
- ≧MR, number of patients ([1]; Phase 1, [AAG] <1.1 g/L, n=20): 4
- ≧MR, rate ([1]; Phase 1, [AAG] <1.1 g/L, n=20): 20%
- ≧PR, number of patients ([1]; Phase 1, [AAG] <1.1 g/L, n=20): 3
- ≧PR, rate ([1]; Phase 1, [AAG] <1.1 g/L, n=20): 15%
- Median Time on Study (months) [1, 2]: 3.9 months
- ≧MR, number of patients [1, 2]: 6
- ≧MR, rate [1, 2]: 33%
- ≧PR, number of patients [1, 2]: 4
- ≧PR, rate [1, 2]: 22%
- Median Time on Study (months) [1, 3]: 6.2 months
- ≧MR, number of patients [1, 3]: 6
- ≧MR, rate [1, 3]: 50%
- ≧PR, number of patients [1, 3]: 4
- ≧PR, rate [1, 3]: 33%
- Median Time on Study (months) [1, 4]: 2.8 months
- ≧MR, number of patients [1, 4]: 6
- ≧MR, rate [1, 4]: 22%
- ≧PR, number of patients [1, 4]: 5
- ≧PR, rate [1, 4]: 19%
- Median Time on Study (months) [1, 5]: 3.4 months
- ≧MR, number of patients [1, 5]: 6
- ≧MR, rate [1, 5]: 29%
- ≧PR, number of patients [1, 5]: 5
- ≧PR, rate [1, 5]: 24%
- time to coming off study, most patients with high baseline [AAG] ([1]; baseline [AAG] greater than 1.1 g/L, FIG. 5): less than 5 months
- increase of risk for discontinuing the study ([1]; with each 1.0 g/L increase in [AAG], p<0.01): 2.5 fold
